This passage reports RP-LC retention time results from the METLIN SMRT retention time set (Domingo-Almenara et al. 2019).

Each structure is given as a SMILES string.

The data set is described as follows: gradient 5% acetonitrile 3 min, to 50% in 2 min, to 85% in 15 min, held 3 min, 100 µL/min. Particulars: column: Zorbax Extend-C18 2.1 x 50 mm; eluents: water / acetonitrile, 0.1% formic acid. A digest of the protocol:
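Over 3 months, pure standards in mixtures of ~100 molecules were run by HPLC coupled to a quadrupole time-of-flight mass spectrometer in positive and negative ionization mode. The column was a Zorbax Extend-C18 (2.1 × 50 mm, 1.8 μm) at 100 μL/min, eluted with water and acetonitrile each holding 0.1% formic acid, with 40 μL dead and 900 μL dwell volumes. Retention time was determined from adduct peaks chosen by software and checked manually.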
`Cc1c(C(=O)N2CCC(C(=O)N3CC=C(c4ccccc4)CC3)CC2)sc2nc[nH]c(=O)c12` had an RP-LC retention time of 728 s. For the compound `CC1=C(C(=O)Nc2cccc(Cl)c2C)C2(CCCCCC2)OC1=O`, the RP-LC retention time was 1090 s.

Regarding `CN(CCNC(=O)CN1C(=O)CSc2cccn2-c2ccccc21)C1CCCCC1`, the RP-LC retention time is 670 s. In the case of `Cc1noc(C)c1CNC(=O)c1ccc2ncccc2c1` it was 753 s; in that of `COCC(C)(O)CNC(=O)C(=O)Nc1ccccc1C#N` (stereo not given), 629 s. As to `Cc1nnc(-c2cn(CC(=O)Nc3ccc(Br)cc3)c3ccccc23)o1`, the RP-LC retention time worked out at 888 s. `CCc1noc(NC(C)=O)c1-c1ccc(OC)c(S(=O)(=O)NC2CCCC2)c1` had an RP-LC retention time of 801 s.

Consider `CCCCN(C)CCNC(=O)c1ccc(N2CCCC2=O)cc1`, for which the RP-LC retention time was 581 s. In the case of `COc1cccc(N2C(=O)c3ccccc3C2C(=O)NC2CCCC2)c1` (stereo not given) it was 775 s; in that of `CCOCCCNC(=O)N1CCC(c2cc(N)on2)CC1`, 601 s; in that of `Cc1oc2c(c1C(=O)Nc1ccc3c(c1)OCO3)C1=NC(C)(C)CN1C=N2`, 665 s. As to `O=C(NC1CCCCC1)c1nc(-c2ccncc2)cs1`, the RP-LC retention time is 660 s. Under `CCN1C(=O)COc2ccc(-c3csc(NC(=O)CC(C)C)n3)cc21` stands 928 s; under `Cc1oc(-c2ccc(C(=O)NCCCN3CCN(C)CC3)cc2)nc1CSc1ccccc1`, 645 s. As to `COc1cccc(CNC2=NCCNC23CCN(S(=O)(=O)c2ccc(F)cc2)CC3)c1`, the RP-LC retention time was 695 s. Under `O=C(NCC(O)(c1ccccc1)C(F)(F)F)c1cccs1` (stereo not given) stands 815 s.

In the case of `Cc1sc(C)c(S(=O)(=O)NCc2ccccc2Cl)c1-c1cc(C(F)(F)F)on1`, the RP-LC retention time is 653 s. `Cc1noc(C)c1CC(=O)N1CCC(Cc2noc(C3CC3)n2)C1` (stereo not given) returned an RP-LC retention time of 748 s. In the case of `CC(C(=O)NCCCN(C)Cc1ccccc1)n1c(=O)c(C(F)(F)F)nc2ccccc21` (stereo not given) it was 725 s; in that of `CCc1ccc(OCc2ccccc2C(=O)Nc2ccc3nc(C)cc(N)c3c2)cc1`, 838 s. As for `Cc1oc(C2CCN(C(=O)Cc3ccccc3Cl)CC2)nc1C(=O)N1CCOCC1`, the RP-LC retention time is 716 s. As to `COC(=O)c1nnn(-c2cc(Cl)ccc2C)c1C(=O)OC`, the RP-LC retention time is 933 s. In turn, `CCn1cc(C)c(C(=O)O)c1CC(=O)NCCC(C)C` showed an RP-LC retention time of 749 s. On to `CS(=O)(=O)Nc1cccc(NC(=O)Cc2csc(NC(=O)c3ccsc3)n2)c1`, for which the RP-LC retention time came out at 676 s. `Cc1cccc(CN2CCN(C3CCN(C(=O)Nc4ccc5c(c4)OCCO5)CC3)C2=O)c1`: the RP-LC retention time is 804 s. In turn, `CSc1ccc(-c2noc(Cn3nc(-c4ccccc4)ccc3=O)n2)cc1` returned an RP-LC retention time of 1040 s.

Compound `COc1ccc(-c2nc(N3CCN(C4CCCCC4)CC3)c3ccccc3n2)cc1` registered an RP-LC retention time of 589 s. `Cc1ccc(C(=O)Nc2ccc3c(c2)Sc2ncccc2C(=O)N3C(C)C)c(C)c1`: the RP-LC retention time was determined as 962 s. `CCOC(=O)C1CCN(C(=O)C2CCN(S(=O)(=O)c3cc(Cl)ccc3OCC)CC2)CC1` came in with an RP-LC retention time of 936 s. The compound `CSc1ccc(NC(=O)c2ccccc2C(F)(F)F)nn1` showed an RP-LC retention time of 765 s. For `O=C(NC1CC1)c1ccc(CN2CCN(Cc3ccccc3)C(=O)C2=O)cc1`, the RP-LC retention time was 1240 s.

Consider `CC(C)CC(=O)Nc1nc(-c2ccc3c(c2)N(C)C(=O)CO3)cs1`, for which the RP-LC retention time was determined as 830 s. The compound `CCn1cnc2ccc(C(=O)NC(C)C)cc2c1=O` yielded an RP-LC retention time of 628 s. Compound `C[C@@H]1C(=O)O[C@H]2C[C@@]34C5C[C@@H](C(C)(C)C)[C@]36[C@H](OC(=O)[C@@H]6O)OC4(C(=O)O5)[C@]21O` (stereo not given in full) had an RP-LC retention time of 709 s.

The compound `Cc1ccccc1CNC(=O)C1CCCN(C(=O)c2[nH]c(C)c(C(=O)OC(C)C)c2C)C1` (stereo not given) displayed an RP-LC retention time of 896 s. Turning to `CC(Oc1ccc(C(C)(C)C)cc1)C(=O)N(Cc1ccco1)C1CCS(=O)(=O)C1` (stereo not given), the RP-LC retention time was 1050 s.

On to `CC(C)NC(=O)Cc1cn2cc(Br)ccc2n1`, for which the RP-LC retention time was found to be 556 s. Consider `CCCn1c(=O)sc2cc(S(=O)(=O)N3CCC(C(=O)NC4CCCC4)CC3)ccc21`, for which the RP-LC retention time came out at 890 s.

The compound `C=CCn1c(=O)c(=O)n(Cc2ccc(C(=O)N3CCN(c4ncccn4)CC3)cc2)c2ccccc21` returned an RP-LC retention time of 722 s. `Cc1ccc(NC(=O)Cn2c(=O)n(-c3ccccc3)c(=O)c3c2cc(C)n3C)c(Cl)c1` yielded an RP-LC retention time of 927 s. Compound `Cc1ccc(-c2cc(C(F)(F)F)on2)cc1S(=O)(=O)N1CCC(C)CC1` came in with an RP-LC retention time of 1280 s.

Take `CCn1cc(CCNC(=O)Nc2cc(C)cc(C)c2)c2cccnc21`: the RP-LC retention time came out at 705 s.

`O=C1NCCCn2cc(S(=O)(=O)Nc3ccc(OC(F)(F)F)cc3)cc21` came in with an RP-LC retention time of 739 s.

On to `Cc1cccc(CN2CCCn3nc(C(=O)NCc4ccc5c(c4)OCO5)cc3C2=O)c1`, for which the RP-LC retention time came out at 861 s. Regarding `CCOC(=O)c1cccc(N2C=C(C#N)S(=O)(=O)c3ccccc32)c1`, the RP-LC retention time was 898 s. In the case of `Cc1nc2cc(-c3noc(-c4ccc(F)cc4)n3)ccc2n(C)c1=O`, the RP-LC retention time was found to be 1030 s. `CCn1cc(CCNC(=O)c2ccccc2Cl)c2cccnc21` showed an RP-LC retention time of 691 s. `O=C(NCCc1csc(-c2ccccc2)n1)C1CCN(S(=O)(=O)c2ccccc2)CC1` had an RP-LC retention time of 881 s. In the case of `CCc1ccc2nc(NCc3ccccn3)sc2c1` it was 621 s; in that of `Cc1nnc(-c2ccc3ccn(CC(=O)Nc4cccc(CN5CCCC5)c4)c3c2)o1`, 610 s; in that of `CCOc1ccc(NC(=O)c2cn3c4c(ccc(Cl)c4c2=O)OCC3)cc1`, 657 s. In the case of `Cc1ccc2ncn(C3CCN(C(=O)Nc4ccc(C)c(F)c4)CC3)c(=O)c2c1` it was 851 s. In the case of `Cc1nc(C)c(C(=O)N2CCC(CC(=O)N3CCOCC3)C2)s1` (stereo not given), the RP-LC retention time was determined as 684 s. Turning to `CC(C)n1c(=O)c(NCc2cccc(C(F)(F)F)c2)nc2ccncc21`, the RP-LC retention time was 725 s. The compound `COc1cccc(-c2noc(C3CCCN3C(=O)Nc3ccc(Br)cc3)n2)c1` (stereo not given) came in with an RP-LC retention time of 964 s. In the case of `Nc1ccc(C(=O)Oc2ccc([N+](=O)[O-])cc2)cc1` it was 926 s; in that of `Cc1ccc(C2c3[nH]c4ccccc4c3CCN2C(=O)c2cccs2)cc1` (stereo not given), 1200 s. In the case of `CC(C)c1noc(-c2ccc(-n3cnc(C(=O)NC4CCCCC4)c3)nc2)n1` it was 741 s; in that of `COC(=O)c1c(NC(=O)C2COc3ccccc3O2)sc2c1CCN(C(=O)OC)C2` (stereo not given), 963 s; in that of `CSc1cccc(NC(=O)Cn2c(C)nc3c(sc4nc(-c5ccccc5)ccc43)c2=O)c1`, 1100 s.
